target: T1, ALK2R206H (mutant ALK2, N-terminally tagged with GST) (Homo sapiens, UniProt Q04771, R206H); assay: ALK binding assay (LANTHASCREEN TR-FRET competitive binding, displacement of Kinase Tracer 178); settings: read-out: Binding Assay (IC50 class)
T1 construct: purchased Carna Bioscience or ThermoFisher 09-148 or PV6232
T1 sequence (Q04771 21-509 R206H): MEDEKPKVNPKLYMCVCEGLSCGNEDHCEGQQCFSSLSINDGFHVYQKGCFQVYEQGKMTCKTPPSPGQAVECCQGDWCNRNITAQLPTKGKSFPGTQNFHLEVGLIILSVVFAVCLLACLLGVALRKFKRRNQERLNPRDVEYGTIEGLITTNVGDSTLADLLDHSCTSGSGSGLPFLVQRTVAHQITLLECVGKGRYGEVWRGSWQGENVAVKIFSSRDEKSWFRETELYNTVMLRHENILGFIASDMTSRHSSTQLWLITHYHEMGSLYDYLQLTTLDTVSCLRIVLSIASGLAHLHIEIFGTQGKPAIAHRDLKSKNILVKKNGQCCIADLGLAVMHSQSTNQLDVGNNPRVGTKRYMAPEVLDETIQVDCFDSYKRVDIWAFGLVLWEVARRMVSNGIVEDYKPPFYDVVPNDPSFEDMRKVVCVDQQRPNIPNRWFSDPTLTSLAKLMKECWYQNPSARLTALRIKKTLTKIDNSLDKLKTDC
How it was run: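 Competitive displacement of Kinase Tracer 178 (50 nM) from N-terminally GST-tagged mutant ALK2 R206H (2-5 nM) by compound, detected by TR-FRET with Eu-anti-GST antibody (4-10 nM). 30 min room temperature incubation, 1% DMSO final; normalized signal fitted to 4-parameter log dose response for IC50.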

IC50 [µM] | Structure (SMILES)
≤ 0.01 | O=C(OCC(F)F)N1CCN(c2ccnc3[nH]c(-c4nc5c(s4)COCC5)c(Cl)c23)CC1 [Compound 449]
0.01 to 0.05 | Cn1cc(-c2cc3c(N4CCN(C(=O)CC(F)(F)F)CC4)ccnc3[nH]2)cn1 [Compound 131]
≤ 0.01 | Cn1ncc(-c2cc3c(N4CCN(C(=O)OC5COC5)CC4)ccnc3[nH]2)c1C#N [Compound 210]
≤ 0.01 | Cc1c(-c2cc3c(N4CCN(C(=O)[C@H]5CC[C@H](C#N)CC5)CC4)ccnc3[nH]2)cnn1C [Compound 334]
≤ 0.01 | CC(C)(C#N)n1cc(-c2cc3c(N4CCN(C(=O)OC5COC5)CC4)ccnc3[nH]2)cn1 [Compound 351]
≤ 0.01 | CCOC(=O)N1CCN(c2ccnc3[nH]c(-c4cnn(C)c4CC)cc23)CC1 [Compound 100]
≤ 0.01 | CC(C)OC(=O)N1CCN(c2ccnc3[nH]c(-c4cnn(C)c4)c(C#N)c23)CC1 [Compound 137]
≤ 0.01 | CCc1csc(-c2cc3c(N4CCN(C(=O)OC5COC5)CC4)ccnc3[nH]2)n1 [Compound 251]
≤ 0.01 | CCn1cc(-c2cc3c(N4CCN(C(=O)C5CC5)CC4)ccnc3[nH]2)cn1 [Compound 23]
≤ 0.01 | Cc1nc(-c2cc3c(N4CCN(C(=O)O[C@H]5CC(F)(F)C5(F)F)CC4)ccnc3[nH]2)cn1C [Compound 432]
≤ 0.01 | O=C(OC1COC1)N1CCN(c2ccnc3[nH]c(-c4ccc(C5(O)CCCC5)cc4)cc23)CC1 [Compound 427]
≤ 0.01 | O=C(OC1COC1)N1CCN(c2ccnc3[nH]c(-c4cccnc4)cc23)CC1 [Compound 67]
≤ 0.01 | CN1CCN(C(=O)COc2ccc(-c3cc4c(N5CCN(C(=O)C6CC6)CC5)ccnc4[nH]3)cc2)CC1 [Compound 464]
≤ 0.01 | Cn1cc(-c2cc3c(N4CCN(C(=O)OC5CC5)CC4)ccnc3[nH]2)cn1 [Compound 30]
≤ 0.01 | CCn1cnc(-c2[nH]c3nccc(N4CCN(C(=O)OC5COC5)CC4)c3c2C#N)c1 [Compound 290]
≤ 0.01 | CC#Cc1c(-c2cnn(C)c2)[nH]c2nccc(N3CCN(C(=O)OC4COC4)CC3)c12 [Compound 285]
≤ 0.01 | O=C(OC1COC1)N1CCN(c2ccnc3[nH]c(-c4nc(C5CC5)cs4)cc23)CC1 [Compound 313]
≤ 0.01 | Cn1cc(-c2[nH]c3nccc(N4CCN(C(=O)O[C@H]5C[C@H](F)C5)CC4)c3c2F)cn1 [Compound 267]
≤ 0.01 | O=C(O[C@H]1C[C@H](F)C1)N1CCN(c2ccnc3[nH]c(-c4ccc(C5(O)CCOCC5)cn4)cc23)CC1 [Compound 462]
≤ 0.01 | Cn1cc(-c2cc3c(N4CCN(C(=O)C5CCCC5)CC4)ccnc3[nH]2)cn1 [Compound 64]
≤ 0.01 | O=C(C1CC1)N1CCN(c2ccnc3[nH]c(-c4cnn(C5COC5)c4)cc23)CC1 [Compound 133]
≤ 0.01 | Cc1c(-c2cnn(C)c2)[nH]c2nccc(N3CCN(C(=O)OC4COC4)CC3)c12 [Compound 148]
≤ 0.01 | Cn1cc(-c2[nH]c3nccc(N4CCN(C(=O)O[C@H]5C[C@H](F)C5)CC4)c3c2C#N)cn1 [Compound 295]
≤ 0.01 | CN(C)CCOc1ccc(-c2cc3c(N4CCN(C(=O)C5CC5)CC4)ccnc3[nH]2)cc1 [Compound 343]
≤ 0.01 | Cn1cc(-c2cc3c(N4CCN(C(=O)CC5CCCC5)CC4)ccnc3[nH]2)cn1 [Compound 135]
≤ 0.01 | N#Cc1ccc(-c2cc3c(N4CCN(C(=O)OC5COC5)CC4)ccnc3[nH]2)nc1 [Compound 192]
≤ 0.01 | O=C(OC1COC1)N1CCN(c2ccnc3[nH]c(-c4ccc(C5=CCOCC5)cc4)cc23)CC1 [Compound 425]

target: T2, human ALK2 R206H (Homo sapiens, UniProt Q04771, R206H); assay: Cell-based ALK2-R206H cell activity assay (Smad1-Ser463/Ser465 phosphorylation by AlphaLISA in HEK293-ALK2-R206H cells); settings: phospho-Smad1 AlphaLISA, read-out: Cell Line (Cell Assay, IC50 class)
T2 construct: expressed in transfected cells; host or cells: HEK293 (ATCC CRL1573), lentivirus transduction, blasticidin selection
T2 sequence (Q04771 21-509 R206H): T1 sequence (Q04771 21-509 R206H)
How it was run: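 IC50 comes from a 10-point curve, scaled between DMSO and 1 μM LDN193189 controls, of lysate phospho-Smad1 (Ser463/465) measured by AlphaLISA. Compounds (top 10 μM or 1 μM, 3-fold steps, duplicates) were given 2-3 h to serum-starved HEK293 cells that stably express FLAG-tagged human ALK2 R206H.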

IC50 [µM] | Structure (SMILES)
≤ 0.1 | O=C(OCC(F)F)N1CCN(c2ccnc3[nH]c(-c4nc5c(s4)COCC5)c(Cl)c23)CC1 [Compound 449]
> 0.5 | Cn1cc(-c2cc3c(N4CCN(C(=O)CC(F)(F)F)CC4)ccnc3[nH]2)cn1 [Compound 131]
0.1 to 0.5 | Cn1ncc(-c2cc3c(N4CCN(C(=O)OC5COC5)CC4)ccnc3[nH]2)c1C#N [Compound 210]
0.1 to 0.5 | Cc1c(-c2cc3c(N4CCN(C(=O)[C@H]5CC[C@H](C#N)CC5)CC4)ccnc3[nH]2)cnn1C [Compound 334]
0.1 to 0.5 | CC(C)(C#N)n1cc(-c2cc3c(N4CCN(C(=O)OC5COC5)CC4)ccnc3[nH]2)cn1 [Compound 351]
0.1 to 0.5 | CCOC(=O)N1CCN(c2ccnc3[nH]c(-c4cnn(C)c4CC)cc23)CC1 [Compound 100]
≤ 0.1 | CC(C)OC(=O)N1CCN(c2ccnc3[nH]c(-c4cnn(C)c4)c(C#N)c23)CC1 [Compound 137]
0.1 to 0.5 | CCc1csc(-c2cc3c(N4CCN(C(=O)OC5COC5)CC4)ccnc3[nH]2)n1 [Compound 251]
0.1 to 0.5 | CCn1cc(-c2cc3c(N4CCN(C(=O)C5CC5)CC4)ccnc3[nH]2)cn1 [Compound 23]
≤ 0.1 | Cc1nc(-c2cc3c(N4CCN(C(=O)O[C@H]5CC(F)(F)C5(F)F)CC4)ccnc3[nH]2)cn1C [Compound 432]
≤ 0.1 | O=C(OC1COC1)N1CCN(c2ccnc3[nH]c(-c4ccc(C5(O)CCCC5)cc4)cc23)CC1 [Compound 427]
0.1 to 0.5 | O=C(OC1COC1)N1CCN(c2ccnc3[nH]c(-c4cccnc4)cc23)CC1 [Compound 67]
0.1 to 0.5 | CN1CCN(C(=O)COc2ccc(-c3cc4c(N5CCN(C(=O)C6CC6)CC5)ccnc4[nH]3)cc2)CC1 [Compound 464]
≤ 0.1 | Cn1cc(-c2cc3c(N4CCN(C(=O)OC5CC5)CC4)ccnc3[nH]2)cn1 [Compound 30]
≤ 0.1 | CCn1cnc(-c2[nH]c3nccc(N4CCN(C(=O)OC5COC5)CC4)c3c2C#N)c1 [Compound 290]
≤ 0.1 | CC#Cc1c(-c2cnn(C)c2)[nH]c2nccc(N3CCN(C(=O)OC4COC4)CC3)c12 [Compound 285]
0.1 to 0.5 | O=C(OC1COC1)N1CCN(c2ccnc3[nH]c(-c4nc(C5CC5)cs4)cc23)CC1 [Compound 313]
≤ 0.1 | Cn1cc(-c2[nH]c3nccc(N4CCN(C(=O)O[C@H]5C[C@H](F)C5)CC4)c3c2F)cn1 [Compound 267]
≤ 0.1 | O=C(O[C@H]1C[C@H](F)C1)N1CCN(c2ccnc3[nH]c(-c4ccc(C5(O)CCOCC5)cn4)cc23)CC1 [Compound 462]
0.1 to 0.5 | Cn1cc(-c2cc3c(N4CCN(C(=O)C5CCCC5)CC4)ccnc3[nH]2)cn1 [Compound 64]
0.1 to 0.5 | O=C(C1CC1)N1CCN(c2ccnc3[nH]c(-c4cnn(C5COC5)c4)cc23)CC1 [Compound 133]
0.1 to 0.5 | Cc1c(-c2cnn(C)c2)[nH]c2nccc(N3CCN(C(=O)OC4COC4)CC3)c12 [Compound 148]
≤ 0.1 | Cn1cc(-c2[nH]c3nccc(N4CCN(C(=O)O[C@H]5C[C@H](F)C5)CC4)c3c2C#N)cn1 [Compound 295]
≤ 0.1 | CN(C)CCOc1ccc(-c2cc3c(N4CCN(C(=O)C5CC5)CC4)ccnc3[nH]2)cc1 [Compound 343]
0.1 to 0.5 | Cn1cc(-c2cc3c(N4CCN(C(=O)CC5CCCC5)CC4)ccnc3[nH]2)cn1 [Compound 135]
0.1 to 0.5 | N#Cc1ccc(-c2cc3c(N4CCN(C(=O)OC5COC5)CC4)ccnc3[nH]2)nc1 [Compound 192]
≤ 0.1 | O=C(OC1COC1)N1CCN(c2ccnc3[nH]c(-c4ccc(C5=CCOCC5)cc4)cc23)CC1 [Compound 425]

From patent US11236086B2, “Substituted pyrrolopyridines as inhibitors of activin receptor-like kinase” (BLUEPRINT MEDICINES CORPORATION, priority 2017, dated 2022)
